# According to patent US20070254950A1, “Oculoselective Drugs and Prodrugs” (Othera Pharmaceuticals, Inc., priority 2004, published 2007):
# Tests used:
# [1] = molecular target: Human recombinant adrenergic beta-1 (Homo sapiens, UniProt P08588); test: Human recombinant adrenergic beta-1 radioligand binding assay ([125I]Cyanopindolol); conditions: [125I]Cyanopindolol radioligand; read-out: Binding efficacy IC50
# Procedure: Human recombinant adrenergic beta-1 Assays (Radioligand Binding) were conducted according to the procedure described by Feve, B., et al., Proc. Natl. Acad. Sci. USA, 91, 5677, 1994 using [[^125I]]Cyanopindolol as a radioligand. The results are expressed in IC50 (nM). (Table B)
# [2] = Accelerated stability test of 0.25% solutions in acetate buffer, HPLC; type: physicochemical; conditions: for projected shelf-life of eye drop formulation: at room temperature, projected from the accelerated test
# Procedure: An accelerated stability test was conducted on 0.25% solutions of compounds 6, 7, and 8 (Example 2) at 40° C. for 1, 2, 3, 4, 8 and 12 weeks and monitored for the disappearance of the prodrugs and appearance of the parent compound by HPLC analysis. The parent compound (referred to hereinafter as compound 4) has the formula: [drawing 47]
# The respective compounds were dissolved in an acetate buffer, pH 3.5 (0.018% sodium acetate, 0.135% acetic acid, 0.9% sodium chloride in water for injection) to obtain 0.25% solution. The stability of the compounds was determined at 40° C. for 1, 2, 3, 4, 8, and 12 weeks. The concentration of the parent compound as well as the concentrations of the prodrug compounds 6, 7, and 8 at each time point by HPLC method.
# [3] = test system: albino rabbits; test: Corneal anesthesia measurements (Cochet's esthesiometer); type: in vivo, rabbit
# Procedure: The effect of a 50 μl single instillation of 0.3%, 0.5%, 1.0% and 2.0% solution of compound 7 on corneal anesthesia, after a single instillation in the conjunctival sac of the right eyes of albino rabbits (N=5) was measured using a Cochet's esthesiometer (nylon thread: 0.12 mm diameter, 10 mm long). Corneal anesthesia was evaluated by the number of corneal mechanical stimuli necessary to induce a blinking reflex. The effect of drug solutions was compared with sterile 0.9% NaCl treated animals (control group) and 0.4% oxybuprocaine (Novesine®).
# [4] = Ocular bioavailability (aqueous humor levels by HPLC); type: in vivo; conditions: single instillation into conjunctival sac
# Procedure: Three rabbits were used per time point. The […] test substance was administered in a single instillation using a micropipette into the conjunctival sac of the right and the left eyes. The rabbits were anesthetized with an intramuscular injection of Imalgène® 1000 (ketamine 32 mg/kg), and Rompun® (xylasine 7.5 mg/kg). They were then desanguinated by cardiac puncture and thereafter euthanized by an overdose of pentobarbital. Immediately after death, the eyes were micro-dissected to obtain: cornea (C), aqueous humor (AH), and iris-ciliary body (ICB). All samples were stored at −80° C. Only aqueous humor (AH) samples were analyzed by HPLC.
# [5] = test system: albino rabbits; test: Evaluation of ocular irritation; type: in vivo, rabbit
# Procedure: Thirty albino rabbits were randomly divided into five groups. Each rabbit was dosed in the conjunctival sac of the right eye topically every ten minutes for one hour (six doses) with 50 μL of 0.0%, 0.3%, 0.5%, 1.0% and 2% of test compound, in 0.9% saline solution. The treated eye of each rabbit was examined for indications of ocular irritation, including swelling, discharge, redness, iritis of conjunctiva, eyelid, iris as well as opacity and involvement of the cornea. Individual scores were added to determine the degree of slight, moderate or severe irritation. Ocular observations were made before the treatment, one hour after the first and sixth instillation and then 1, 2, 3, 4 and 7 days, using a slit lamp.
# Sequence of Human recombinant adrenergic beta-1 (P08588 whole entry): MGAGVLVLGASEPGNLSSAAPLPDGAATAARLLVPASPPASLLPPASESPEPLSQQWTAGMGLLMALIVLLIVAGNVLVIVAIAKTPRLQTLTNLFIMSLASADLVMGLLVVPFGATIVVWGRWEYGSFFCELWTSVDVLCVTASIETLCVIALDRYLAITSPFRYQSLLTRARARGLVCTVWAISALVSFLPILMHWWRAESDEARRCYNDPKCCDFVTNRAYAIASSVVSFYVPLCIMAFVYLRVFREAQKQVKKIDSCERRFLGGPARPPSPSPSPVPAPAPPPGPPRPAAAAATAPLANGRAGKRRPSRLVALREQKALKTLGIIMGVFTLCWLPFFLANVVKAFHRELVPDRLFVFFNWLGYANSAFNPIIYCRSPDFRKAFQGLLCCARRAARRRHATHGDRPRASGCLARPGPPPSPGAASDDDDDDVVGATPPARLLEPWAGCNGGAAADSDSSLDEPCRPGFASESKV
SMILES,IC50 [1] [nM],projected shelf-life of eye drop formulation [2],level of the prodrug itself in aqueous humor [4],other results
"Cc1cc(O)c(O)cc1C(=O)OC[C@@H](O)CNC(C)(C)CO [Compound 15, (S)-4,5-dihydroxy-2-methyl-benzoic acid 2-hydroxy-3-(2-hydroxy-1,1-dimethyl-ethylamino)-propyl ester]",39,–,–,–
"Cc1cc(O)c(O)cc1C(=O)OCC(CNC(C)(C)CNC(=O)C1CCOC1)OC(=O)C1(C)CC1 (stereo not shown) [Compound 7, 4,5-Dihydroxy-2-methyl-benzoic acid 3-{1,1-dimethyl-2-[(tetrahydro-furan-3-carbonyl)-amino]-ethylamino}-2-(1-methyl-cyclopropanecarbonyloxy)-propyl ester]",–,at least 18 months,also present in aqueous humor,"relative stability (percent degradation time course, FIG. 1) ([2]; 0.25% solution, 40° C., pH 3.5, up to 12 weeks): most stable; corneal sensitivity (local anesthetic activity) ([3]; single 50 μl instillation of 0.3%, 0.5%, 1.0% and 2.0% solution, compared to 0.4% oxybuprocaine): no corneal sensitivity (local anesthetic activity); ocular irritation ([5]; topical, six times every ten minutes at 0.3%, 0.5%, 1.0% and 2.0%, right conjunctival sac, vs 0.9% saline control): no ocular irritation"
"Cc1cc(O)c(O)cc1C(=O)OCC(CNC(C)(C)CNC(=O)C1CCOC1)OC(=O)C(C)(C)C (stereo not shown) [Compound 6, reference compound]",–,2.6 months,below the detection limit,corneal sensitivity loss ([3]; at 1%): complete corneal sensitivity loss; ocular irritation ([5]; at 1% concentration): moderate irritation
"Cc1cc(O)c(O)cc1C(=O)OCC(CNC(C)(C)CNC(=O)C1CCOC1)OC(=O)C1CC1(C)C (stereo not shown) [Compound 8, 4,5-dihydroxy-2-methyl-benzoic acid 2-(2,2-dimethyl-cyclopropanecarbonyloxy)-3-{1,1-dimethyl-2-[(tetrahydro-furan-3-carbonyl)-amino]-ethylamino}-propyl ester]",–,7.9 months,–,–

# The next lines start with results.
IC50 [1] [nM],SMILES,projected shelf-life of eye drop formulation [2],level of the prodrug itself in aqueous humor [4],other results
6.4,"Cc1cc(O)c(O)cc1C(=O)OC[C@@H](O)CNC(C)(C)COC(=O)C1CCOC1 (stereo partly drawn) [Compound 19, (S)-Tetrahydro-furan-3-carboxylic acid 2-[3-(4,5-dihydroxy-2-methyl-benzoyloxy)-2-hydroxy-propylamino]-2-methyl-propyl ester]",–,–,–
12,"Cc1cc(O)c(O)cc1C(=O)OC[C@@H](O)CNC(C)(C)COC(=O)C(C)(C)C [Compound 17, (S)-4,5-bis-dihydroxy-2-methyl-benzoic acid 3-[2-(2,2-dimethyl-propionyloxy)-1,1-dimethyl-ethylamino]-2-hydroxy-propyl ester]",–,–,–
